Drawing on patent US20260265055A1, “Sulfine-Based Compounds for Generating Hydrogen Persulfide” (Brown University, priority 2023, published 2026), this text covers SSP4 fluorescence for one molecule.

The nature of the experiment: Monitoring H2S2 formation from the TTS-TAGDD hybrid compound 3 (SSP4, 12 h). The following applies: 25 μM compound only, over 12 hours. The procedure:
Monitoring H2S2 formation from the TTS-TAGDD hybrid compound 3: TTS and 3 were prepared as 1 mM solutions in DMSO. L-cysteine and Na2S2 were prepared at 4 mM and 1 mM in MilliQ H2O, respectively. SSP4 was dissolved in DMSO to obtain a 200 μM stock solution. CTAB was dissolved in ethanol to yield a 2 mM stock solution. 50 mM PBS buffer (pH 7.4) was added to individual wells of a black polystyrene, flat-bottomed clear 96-well plate, followed by TTS (25 μM) or 3 (25 μM) then cysteine (100 μM) or Na2S2 (25 μM). Samples were mixed by pipetting up and down and incubated in the dark at room temperature (rt) for 30 min. Next, CTAB (50 μM) was added to all wells followed by SSP4 (5 μM), and samples were mixed by pipetting up and down. Samples were then incubated in the dark at room temperature for another 30 min before being measured on a Molecular Devices SpectraMax iD3 Multi-Mode Microplate Reader (fluorescence mode; kinetics measurement type; emission 535 nm; excitation 485 nm; integration time […], low PMT sensitivity, attenuation 1, read height 1.00 mm; total run time: 12 hours; 25 cycles; interval: 0.5 hours). Data was graphed as a time dependent fluorescence response, with F0 as the SSP4 only condition. The fluorescence of Na2S2 over time was not represented in the line graph presented due to the compound's known instability. Data obtained from the 12 h time point including from Na2S2 was also represented in a bar graph for greater clarity. Results were expressed as mean±SEM (n=3).

Take `COC(=O)c1ccc(=S=O)sc1` [TTS, 2H-thiopyran-2-thione sulfine]: the SSP4 fluorescence result was “did not give any notable fluorescence”.
